Data on 46 compounds can be found in paper PMC11276849, “A Female-Biased Chemosensory Protein PxutCSP19 in the Antennae of Papilio xuthus Tuned to Host Volatiles and Insecticides” (Insects, 2024).

In the experiment the target is PxutCSP19 (Papilio xuthus, UniProt A0A194QJK0). As to the kind of experiment: Fluorescence competitive binding assay (1-NPN displacement), wildtype PxutCSP19. Particulars: for inhibition at 20 µM: read-out: F.D. (fluorescent displacement rate of ligands), Wildtype (WT); for inhibition at 20 µM / F.D. (fluorescent displacement rate of ligands): ligand at 20 μM, PxutCSP19/1-NPN each 2 μM, NB = no binding; for 1-NPN fluorescence displaced / binding with PxutCSP19 (in words): wildtype; for 1-NPN fluorescence displaced: ligand at 36 μM. From the text: The open reading frame (ORF) of PxutCSP19 was cloned with a PrimeSTAR®® Max DNA Polymerase (TaKaRa, Liaoning, Dalian, China) and gene-specific primers containing restriction enzyme sites (BamH I and Xho I) (Table S2). The PCR products were detected on a 1.5% (w/v) agarose gel, and the expected bands were cut and purified using a HiPure Gel Pure DNA Mini Kit (Magen, Guangzhou, China). Next, BamH I and Xho I were used to digest the PxutCSP19 products and pET-30a (+) plasmids, followed by purification. A T4 DNA ligase (Thermo Fisher Scientific, Waltham, MA, USA) was applied to the construction of the recombinant plasmids pET-30a (+)/PxutCSP19. After being confirmed by sequencing, the plasmids were transformed into BL21 (DE3) competent cells so as to express recombinant proteins with 1.0 mM isopropyl β-D-thiogalactoside (IPTG). Because this recombinant protein pET-30a (+)/PxutCSP19 was insoluble, we applied a protein denaturation–renaturation approach to purify PxutCSP19 with an affinity chromatography technique, in which the denaturation buffer included 8 M urea and 1.0 mM β-mercaptoethanol.
Chain of PxutCSP19 (A0A194QJK0 entry or part of it): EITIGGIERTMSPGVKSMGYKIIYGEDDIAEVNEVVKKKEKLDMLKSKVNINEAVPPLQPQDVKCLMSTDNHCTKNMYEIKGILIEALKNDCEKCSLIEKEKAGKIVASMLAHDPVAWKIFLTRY
In order to investigate the ligand-binding properties of PxutCSP19 to host odorants and insecticides, we first asked whether this fluorescent probe 1-NPN was available for the binding of PxutCSP19. To calculate the binding ability of PxutCSP19 to 1-NPN, we titrated different final concentrations of 1-NPN (2~20 μM) into Tris-HCl buffer (pH 7.4) containing 2 μM PxutCSP19. The binding constant (K1-NPN) of 1-NPN to this protein was determined with GraphPad Prism 7 (GraphPad Software Inc., San Diego, CA), as previously described. The solution was excited at 337 nm and the emission peak was monitored at 414 nm on an RF-5301PC spectrofluorometer (Shimadzu, Kyoto, Japan) using a quartz micro-cuvette filled with a 100 μL mixture, with 5 nm excitation and emission slit widths. If the host odorant molecules could displace more than 40% of the 1-NPN fluorescence from the binding cavity of PxutCSP19, the compounds would be continuously added up to 36 μM with triplicates. For the binding experiments, each compound would be added into the PxutCSP19/1-NPN (each 2 μM) complex with final concentrations of 2~20 μM. […] We used the Ki values to compare the binding affinities of various ligands with the equation: Ki = [IC50]/(1 + [1-NPN]/K1-NPN), where IC50 represents the ligand concentrations displacing one half of the initial protein/1-NPN fluorescence, and [1-NPN] is the free concentration of 1-NPN at 2 μM.

The mark [1] stands for this setting: Wildtype (WT), ligand up to 20 μM or 36 μM, displacing half of protein/1-NPN fluorescence, read-out: IC50.

Like-named read-outs stand apart in the source and are kept apart here. A value given as a limit tells only on which side of the number the result lay.

In general, IC50 refers to the midpoint of a concentration-inhibition curve. On to `CCCSP(=O)(OCC)Oc1ccc(Br)cc1Cl` (stereo not shown) [Profenofos, reference compound], for which the IC50 is greater than 20 µM and the inhibition at 20 µM turned out to be 41%.
In the case of `O=C(NC(=O)c1ccccc1Cl)Nc1ccc(Cl)cc1` [Chlorbenzuron, reference compound], the “F.D. (fluorescent displacement rate of ligands)” value (Wildtype (WT)) came out at 42.75%. The IC50 under setting [1] was greater than 20 µM.
On to `COC(=O)c1ccccc1C` [Methyl o-toluate], for which the “F.D. (fluorescent displacement rate of ligands)” value (Wildtype (WT)) is reported as 37.28%. In addition, the IC50 under setting [1] is greater than 20 µM.
`CC1=CC=C(C(C)C)CC1` [α-Terpinene]: the half-inhibitory concentration (IC50) was greater than 36 µM, the inhibition at 20 µM was greater than 40% and the 1-NPN fluorescence displaced result is given as “less than 50%”.
Take `CC1(C)[C@H](C(=O)O[C@H](C#N)c2cccc(Oc3ccccc3)c2)[C@@H]1C=C(Br)Br` [Deltamethrin, reference compound]: the IC50 is greater than 20 µM and the inhibition at 20 µM came to 39.3%.
Regarding `CC1(C)[C@H]2O[C@H]2[C@H]2[C@](C)(O)[C@@H]3CC[C@@H]4[C@@H](O)[C@@]3(C[C@@H](O)[C@@]21O)C[C@@]4(C)O` [Rhodojaponin III, reference compound], the “F.D. (fluorescent displacement rate of ligands)” value (Wildtype (WT)) amounted to 38.52%. Besides, under setting [1], the IC50 is greater than 20 µM.
Turning to `CCCCCCCCC=O` [Nonanal], the IC50 is greater than 20 µM and the inhibition at 20 µM came to 29.3%.
On to `CC(C)=CCC/C(C)=C/C=O` [Citral], for which the IC50 was greater than 20 µM and the inhibition at 20 µM came to 39.7%.
For `CCc1ccc(C(=O)NN(C(=O)c2cc(C)cc(C)c2)C(C)(C)C)cc1` [Tebufenozide, reference compound], the IC50 was greater than 20 µM and the inhibition at 20 µM is 48.5%.
The like results for `CC/C=C\CCO` [(Z)-3-Hexen-1-ol] were, in that order, greater than 20 µM and 35.8%.
Taken in the same sequence, the figures for `CC1(C)C(C=C(Cl)Cl)C1C(=O)OC(C#N)c1cccc(Oc2ccccc2)c1` (stereo not drawn) [α-Cypermethrin, reference compound] were greater than 20 µM and 5.65%.
Turning to `CC1=CC[C@@H]2C[C@H]1C2(C)C` [(1R)-(+)-α-Pinene], the IC50 is greater than 20 µM and the inhibition at 20 µM was 38.4%.
As to `CC1=CC[C@H](C(C)C)C=C1` [α-Phellandrene], the IC50 was greater than 20 µM and the inhibition at 20 µM came out at 34.1%.
`CNC(=O)c1cc(Cl)cc(C)c1NC(=O)c1cc(Br)nn1-c1ncccc1Cl` [Chlorantraniliprole, reference compound]: the IC50 was greater than 20 µM and the inhibition at 20 µM amounted to 43.6%.
Regarding `CNC(=O)ON=C(C)SC` [Methomyl, reference compound], the half-inhibitory concentration (IC50) was greater than 20 µM and the inhibition at 20 µM is 45.4%.
With `CC1=CCC(C(C)C)=CC1` [γ-Terpinene], the IC50 is greater than 36 µM, the inhibition at 20 µM is greater than 40% and the 1-NPN fluorescence displaced entry is “less than 50%”.
For the compound `CC(C)=CCC/C(C)=C/CC/C(C)=C/CO` [Farnesol], the IC50 is greater than 20 µM and the inhibition at 20 µM was 27%.
Take `C=C1C2CCC(C2)C1(C)C` (stereo not shown) [Camphene]: the IC50 was greater than 20 µM and the inhibition at 20 µM was determined as 34.5%.
The like results for `CCCCCCO` [1-Hexanol] were, in that order, greater than 20 µM and 39%.
Take Farnesene: the “F.D. (fluorescent displacement rate of ligands)” value (Wildtype (WT)) stood at 23.21%. Further, under setting [1], the IC50 was greater than 20 µM.
As to `C/C(=N\C#N)N(C)Cc1ccc(Cl)nc1` [Acetamiprid, reference compound], the IC50 was greater than 20 µM and the inhibition at 20 µM stood at 42.9%.
Consider `CC1=CC[C@@H](C(C)(C)O)CC1` [α-Terpineol], for which the half-inhibitory concentration (IC50) is greater than 36 µM, the inhibition at 20 µM was greater than 40% and the 1-NPN fluorescence displaced entry is “less than 50%”.
For `C=CC(=C)CCC=C(C)C` [Myrcene], the IC50 is greater than 20 µM and the inhibition at 20 µM turned out to be 32.4%.
In the case of `CCOC(C)=O` [Ethyl acetate], the IC50 was greater than 20 µM and the inhibition at 20 µM worked out at 37.6%.
Take `CC1=CCC(O)(C(C)C)CC1` (stereo not shown) [4-Terpineol]: the IC50 is greater than 36 µM, the inhibition at 20 µM was greater than 40% and the 1-NPN fluorescence displaced entry is given as “less than 50%”.
As to `C=C[C@]1(C)CC[C@@H](C(=C)C)C[C@H]1C(=C)C` [β-Elemene], the “binding with PxutCSP19 (in words)” value is reported as “no binding”.
As for `CCCCCC=O` [Hexanal], the IC50 is greater than 20 µM and the inhibition at 20 µM came out at 21.1%.
The like results for `Cc1ccc(C(C)C)cc1O` [Carvacrol] were, in that order, greater than 20 µM and 37.4%.
As for `N#Cc1nn(-c2c(Cl)cc(C(F)(F)F)cc2Cl)c(N)c1[S+]([O-])C(F)(F)F` (stereo not shown) [Fipronil, reference compound], the IC50 is greater than 20 µM and the inhibition at 20 µM worked out at 37.5%.
As to `C=C(C)[C@H]1CC=C(C)CC1` [Limonene], the “F.D. (fluorescent displacement rate of ligands)” value (Wildtype (WT)) is listed as 20.36%. Moreover, the IC50 under setting [1] was greater than 20 µM.
For `CCCCCCCCCC=O` [Decanal], the IC50 was greater than 20 µM and the inhibition at 20 µM amounted to 28.7%.
Taken in the same sequence, the figures for `O=CCc1ccccc1` [Phenylacetaldehyde] were greater than 20 µM and 27.3%.
Consider `CN1COCN(Cc2cnc(Cl)s2)/C1=N\[N+](=O)[O-]` [Thiamethoxam, reference compound], for which the IC50 is greater than 20 µM and the inhibition at 20 µM was 44.6%.
Take `CCCC(=O)OCC` [Ethyl butyrate]: the IC50 is greater than 20 µM and the inhibition at 20 µM came to 28.7%.
With `CC1=CCC2CC1C2(C)C` (stereo not drawn) [α-Pinene], the IC50 was greater than 20 µM and the inhibition at 20 µM is 34.6%.
As to `CCC/C=C/CO` [(E)-2-Hexen-1-ol], the IC50 was greater than 20 µM and the inhibition at 20 µM was 35.6%.
Turning to `C=CC(C)(O)CCC=C(C)CCC=C(C)C` (mixture of isomers) [Nerolidol], the IC50 is greater than 20 µM and the inhibition at 20 µM amounted to 12.4%.
Consider `COP(=O)(OC)C(O)C(Cl)(Cl)Cl` (stereo not shown) [Trichlorphon, reference compound], for which the “F.D. (fluorescent displacement rate of ligands)” value (Wildtype (WT)) is reported as 33.61%. The IC50 under setting [1] is greater than 20 µM.
`CC(C)=CCC[C@@H](C)CC=O` [Citronellal]: the “F.D. (fluorescent displacement rate of ligands)” value (Wildtype (WT)) was determined as 34.20%. The IC50 under setting [1] is greater than 20 µM.
With `O=Cc1ccccc1` [Benzaldehyde], the IC50 was greater than 20 µM and the inhibition at 20 µM amounted to 36.9%.
In the case of `C=C1CCC2CC1C2(C)C` (stereo not drawn) [β-Pinene], the IC50 was greater than 20 µM and the inhibition at 20 µM was 31.2%.
The like results for `c1ccc2[nH]ccc2c1` [Indole] were, in that order, greater than 20 µM and 39%.
As to `Cc1ccc(C(C)C)cc1` [p-Isopropyl toluene], under “Wildtype (WT)”, the “F.D. (fluorescent displacement rate of ligands)” value is given as 32.32%. In addition, under setting [1], the IC50 is greater than 20 µM.
As for `O=[N+]([O-])NC1=NCCN1Cc1ccc(Cl)nc1` [Imidacloprid, reference compound], the IC50 was greater than 20 µM and the inhibition at 20 µM amounted to 41.7%.
Regarding `CS/C(C)=N\OC(=O)N(C)SN(C)C(=O)O/N=C(\C)SC` [Thiodicarb, reference compound], the IC50 was greater than 20 µM and the inhibition at 20 µM was found to be 37.4%.
`C=C1CC/C=C(\C)CC[C@@H]2[C@@H]1CC2(C)C` [β-Caryophyllene]: the “binding with PxutCSP19 (in words)” value is recorded as “no binding”.
